Assay results: patent US20240294881A1, “CELL CULTURE SUPPLEMENT FOR PRODUCING STEM CELLS, AND METHOD FOR PRODUCING STEM CELLS” (OPTICELL, INC, priority 2021, published 2024)

Columns and labels:
Type in all cases: cell-based
[1] = tested on: healthy human adult skin fibroblasts; test: Real-time PCR of stem cell and triploblastic marker genes in adult skin fibroblast spheroids; conditions: day 20 of 3D spheroid culture, ΔΔCt
Experimental: (§1) An aqueous solution of the polypeptide represented by formula (1) (0.125%) (cell culture supplement) was added to a commercial polystyrene-made 96-well round-bottom culture vessel (Nuncion Delta 96U Bottom, Thermo Fisher Scientific) and allowed to stand at 4° C. for 24 hours. The cell culture supplement solution was then removed and the coated cell culture supplement was dried in a dryer at 37° C. for 96 hours to complete the cell culture supplement coating process. Healthy human adult skin fibroblasts (Lonza, normal human dermal fibroblast-adult, referred to as “adult skin fibroblasts” below) were maintained and cultured in a serum-free medium (Fujifilm Wako Pure Chemical Corporation; DMEM/F12 medium, human serum albumin recombinant 0.5 mg/mL, human transferrin recombinant 10 μg/mL, basic-FGF 5 ng/ml, and insulin 2.5 μg/mL). Adult skin fibroblasts floating in 100 μL of the medium were seeded in the 96-well round-bottom culture vessel coated with the cell culture supplement at 2×10^4 cells/well and cultured at 37° C. under 5% CO2 conditions.
The detection of stem cell marker genes was performed by analysis of the expression of mRNA by real-time PCR. Specifically, on day 20 from the start of culture, spheroids were collected in a 15-mL centrifuge tube and centrifuged, followed by washing the cells with phosphate buffered saline(−) and collecting the cells. Cells two-dimensionally cultured in a culture vessel not treated with the cell culture supplement (control) (day 0) were washed with PBS (−) after removal of the medium. The cells were detached from the plate with 0.05% trypsin-EGTA and dissociated, followed by collecting the cells in a 15-mL centrifuge tube and washing again with PBS(−) again. A NucleoZOL (Macherey-Nagel) reagent was added to the spheroids, and RNA was extracted according to the protocol recommended by the reagent manufacturer and determined to be template RNA. For real-time PCR analysis, PCR probes from QuantiFast Probe RT-PCR Kits (QIAGEN; No. 204454) and TaqMan Gene Expression Assay Probe (Thermo Fisher Scientific) were used. PCR analysis was performed with a Rotor-Gene Q (QIAGEN) apparatus. For detection of genes, three transcription factors were used as probes for detecting the expression of undifferentiated stem cell marker genes: SOX2 (sex-determining region Y-box 2), OCT4 (octamer binding transcription factor 4), and NANOG (homeodomain transcription factor); and β-actin was used as an endogenous control gene (FIG. 13).
To determine whether stem cells induced in spheroids can differentiate into primordial three germ layers, the expression of triploblastic marker genes was examined by real-time PCR. For probes for detection, the following four triploblastic marker genes were used: SOX17 (sex-determining region Y-box 17; endoderm), GATA6 (GATA family of zinc finger transcription factors; endoderm), HAND1 (heart-and neural crest derivatives-expressed protein 1; mesoderm), and SOX1 (HMG-box (high mobility group) DNA-binding domain; ectoderm). For an endogenous control gene, TaqMan Gene Expression Assay Probe (ß-actin) was used (FIG. 14). In the gene expression analysis, relative quantification was performed according to the ΔΔCt method (Delta Delta Ct method). The results of analysis according to the ΔΔCt method show the amount of a gene expressed by control cells under the conditions of “no cell culture supplement, flat-bottom 2D growth, day 0” as “1.0” in relative terms, and the increase rate in “the expression level in spheroid proliferation on day 20” was determined by comparison.

[2] = tested on: healthy human adult skin fibroblasts; test: Spheroid culture of healthy human adult skin fibroblasts, microscope observation; conditions: 96-well round-bottom vessel coated with 0.125% solution; uncoated control grew 2D
Experimental: as §1

[3] = tested on: healthy human adult mammary gland epithelial cells; test: Real-time PCR of stem cell and three germ layer marker genes in mammary gland epithelial cell spheroids
Experimental: The analysis of expression of gene mRNA was performed by real-time PCR.
Specifically, on day 20 from the start of culture, spheroids were collected in a 15-mL centrifuge tube and centrifuged, and then washed with phosphate buffered saline (−) and collected. Two-dimensionally cultured cells in the culture vessel that was not coated with the cell culture supplement (control) (day 0) were washed with PBS (−) after removal of the medium, and the cells were detached from the plate with 0.05% trypsin-EGTA and dissociated, followed by collecting the cells in a 15-mL centrifuge tube and washing with PBS (−) again. A NucleoZOL reagent (Macherey-Nagel) was added to the spheroids, and RNA extracted according to the protocol recommended by the reagent manufacturer was determined to be template RNA. For real-time PCR analysis, PCR probes from QuantiFast Probe RT-PCR Kits (QIAGEN; No. 204454) and TagMan Gene Expression Assay Probe (Thermo Fisher Scientific) were used. PCR analysis was performed with a Rotor-Gene Q (QIAGEN) apparatus. The genes targeted for detection were the following three transcription factors: SOX2 (sex-determining region Y-box 2), OCT4 (octamer binding transcription factor 4), and NANOG (homeodomain transcription factor) as the probes for detecting the expression of undifferentiated stem cell marker genes; and β-actin was used as an endogenous control gene (FIG. 16).
For probes for detection of genes associated with primordial three germ layers, the following three triploblastic marker genes were used: SOX17 (sex-determining region Y-box 17; endoderm), GATA6 (GATA family of zinc finger transcription factors; mesoderm), and MAP2 (microtubule associated protein 2: ectoderm). For an endogenous control gene, TaqMan Gene Expression Assay Probe of ß-actin was used (FIG. 17).
In the gene expression analysis, relative quantification was performed according to the ΔΔCt method (Delta Delta Ct method). The results of analysis according to the ΔΔCt method show the amount of a gene expressed by control cells under the conditions of “no cell culture supplement, flat-bottom 2D growth, day 0” as “1.0” in relative terms, and the increase rate in “the expression level in spheroid proliferation on day 20” was determined by comparison.

[4] = day 20 of 3D spheroid culture, coated 96-well, 2D adhesion control without supplement = 1.0, ΔΔCt
[5] = day 20 of 3D spheroid culture, 2D control without supplement day 0 = 1.0, ΔΔCt
[6] = spheroids cultured for 20 days (FIG. 17 legend)

(Pro-Hyp-Gly)n [cell culture supplement]
NANOG gene expression level (increase vs control) ([1]; 2D control cells = 1.0): 50.5 fold | OCT4 gene expression level (increase vs control) ([1]; 2D control cells = 1.0): 13.0 fold | SOX2 gene expression level (increase vs control) ([1]; 2D control cells = 1.0): 9.4 fold | GATA6 gene expression level (increase vs control) ([1]; control cells = 1.0): 2.2 fold | HAND1 gene expression level (increase vs control) ([1]; control cells = 1.0): 33.9 fold | SOX1 gene expression level (increase vs control) ([1]; control cells = 1.0): 7.1 fold | SOX17 gene expression level (increase vs control) ([1]; control cells = 1.0): 11.4 fold | spheroid formation [2]: formed spheroids | GATA6 (mesoderm marker) gene expression ([3]; day 20 of 3D spheroid culture): no gene expression of GATA6 (mesoderm marker) was detected | NANOG gene expression level (increase vs control) [3, 4]: 28.7 fold | OCT4 gene expression level (increase vs control) [3, 4]: 1.5 fold | SOX2 gene expression level (increase vs control) [3, 4]: 24.0 fold | MAP2 gene expression level (increase vs control) [3, 5]: 2.7 fold | SOX17 gene expression level (increase vs control) [3, 5]: 124.7 fold | FOXA2 (endoderm) mRNA expression level [3, 6]: decreased | GATA4 (mesoderm) mRNA expression [3, 6]: undetectable
